Structures are written as SMILES.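 How tested: cells in 96-well plates exposed to compound for 48 hours at five concentrations. GI50 = concentration required for 50% inhibition of growth. TGI: concentration producing complete growth inhibition.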

Test systems include LOX IMVI melanoma; SK-OV-3 ovarian; SK-MEL-2 melanoma; NCI/ADR-RES ovarian; NCI-H522 lung; OVCAR-5 ovarian; RPMI-8226 leukemia; SW-620 colon; MCF7 breast; SR leukemia.
Holding throughout (test): inhibition of tumour cell growth, NCI panel, 48 h

Take `COc1ccc2c(c1)C(c1ccccc1Cl)=Nc1c(n[nH]c1C)N2`: the GI50 in the experiment on LOX IMVI melanoma is 14700 nM; with SK-OV-3 ovarian it was over 25 µM; in the experiment with SK-MEL-2 melanoma, over 11.2 µM; in the experiment with NCI/ADR-RES ovarian, over 25 µM; in the experiment with NCI-H522 lung, over 20 µM; with OVCAR-5 ovarian it was over 25 µM. The GI50 in the experiment with RPMI-8226 leukemia is over 25 µM; in the experiment on SW-620 colon, over 16.1 µM; with MCF7 breast, 13.7 µM; with SR leukemia it was 10.5 µM. For the same molecule, the TGI with LOX IMVI melanoma is over 25 µM; in the experiment with SK-OV-3 ovarian, over 25 µM; with SK-MEL-2 melanoma, over 23.4 µM; in the experiment on NCI/ADR-RES ovarian it was over 25 µM; with NCI-H522 lung, over 25 µM; with OVCAR-5 ovarian, over 25 µM. Besides, the TGI with RPMI-8226 leukemia, with SW-620 colon, in the experiment on MCF7 breast and in the experiment on SR leukemia was over 25 µM throughout.

In the case of `COC(=O)C1(F)C(=O)NC(=O)NC1O` (centres undefined), the TGI in the experiment on LOX IMVI melanoma, in the experiment on SK-OV-3 ovarian, with SK-MEL-2 melanoma, with NCI/ADR-RES ovarian, with NCI-H522 lung and in the experiment with OVCAR-5 ovarian was over 100 µM throughout. The TGI with RPMI-8226 leukemia, in the experiment on SW-620 colon, in the experiment with MCF7 breast and with SR leukemia was over 100 µM each time.

`Cc1cc(Cc2cc(C)cc(C(C)(C)C)c2O)c(O)c(C(C)(C)C)c1`: the GI50 in the experiment with LOX IMVI melanoma was 7550 nM; in the experiment on SK-OV-3 ovarian, 11.9 µM; in the experiment on SK-MEL-2 melanoma, 15.1 µM; in the experiment with NCI/ADR-RES ovarian, 10.1 µM; in the experiment on NCI-H522 lung it was 4.16 µM; in the experiment with OVCAR-5 ovarian, 14.4 µM. The GI50 in the experiment on RPMI-8226 leukemia is 7.55 µM; in the experiment on SW-620 colon it was 4.47 µM; in the experiment on MCF7 breast, 3.47 µM; with SR leukemia, 4.46 µM. In addition, the TGI was found to be 20.2 µM in the experiment with LOX IMVI melanoma; 24.2 µM with SK-OV-3 ovarian; 33.6 µM in the experiment on SK-MEL-2 melanoma; 21.8 µM in the experiment on NCI/ADR-RES ovarian; 14.6 µM with NCI-H522 lung; 27.5 µM in the experiment on OVCAR-5 ovarian. The TGI with RPMI-8226 leukemia is 57.2 µM; with SW-620 colon, 16 µM; in the experiment with MCF7 breast, 12.7 µM; with SR leukemia, 45.9 µM.

As for `COc1ccc(Cl)cc1NC(=O)C(Br)C(Br)C(=O)O` (centres undefined), the GI50 was 1020 nM with LOX IMVI melanoma; over 100 µM in the experiment with SK-OV-3 ovarian; 7.54 µM with SK-MEL-2 melanoma; 3.03 µM with NCI/ADR-RES ovarian; 1.91 µM in the experiment on NCI-H522 lung; 27.9 µM in the experiment on OVCAR-5 ovarian. The GI50 in the experiment on RPMI-8226 leukemia is 17.7 µM; with SW-620 colon it was 5 µM; in the experiment on MCF7 breast, 3.23 µM; in the experiment with SR leukemia, 3.43 µM. In addition, the TGI with LOX IMVI melanoma was 2.52 µM; in the experiment on SK-OV-3 ovarian it was over 100 µM; in the experiment with SK-MEL-2 melanoma, 26.2 µM; with NCI/ADR-RES ovarian, 9.26 µM; in the experiment on NCI-H522 lung it was 5.45 µM; with OVCAR-5 ovarian, 57 µM. Moreover, the TGI is over 91.7 µM with RPMI-8226 leukemia, over 51.5 µM in the experiment on SW-620 colon, over 47.9 µM in the experiment with MCF7 breast and over 100 µM in the experiment with SR leukemia.

`CC(C)NC(=O)OCc1c(COC(=O)NC(C)C)c(-c2ccc(Cl)cc2)n2c1CCC2`: the GI50 in the experiment with LOX IMVI melanoma is 2400 nM; with SK-OV-3 ovarian, 2.92 µM; in the experiment on SK-MEL-2 melanoma, 4.23 µM; with NCI/ADR-RES ovarian, 3.05 µM; with NCI-H522 lung, 1.77 µM; in the experiment with OVCAR-5 ovarian it was 3.3 µM. Further, the GI50 in the experiment with RPMI-8226 leukemia was 2.6 µM; in the experiment on SW-620 colon it was 3.35 µM; with MCF7 breast, 3.59 µM; with SR leukemia, 0.218 µM. Besides, the TGI amounted to 13.6 µM in the experiment with LOX IMVI melanoma; 12.5 µM with SK-OV-3 ovarian; 17.4 µM in the experiment on SK-MEL-2 melanoma; 16.8 µM with NCI/ADR-RES ovarian; 5.66 µM in the experiment on NCI-H522 lung; 13.5 µM in the experiment with OVCAR-5 ovarian. Moreover, the TGI in the experiment on RPMI-8226 leukemia turned out to be 23.8 µM; in the experiment with SW-620 colon, 19.2 µM; in the experiment on MCF7 breast, 33.4 µM.

Consider `O=C1c2c(nc3ccccc3c2-c2ccccc2)CN1Nc1ccccn1`, for which the TGI in the experiment on LOX IMVI melanoma, in the experiment on SK-OV-3 ovarian, in the experiment with SK-MEL-2 melanoma, in the experiment with NCI/ADR-RES ovarian, with NCI-H522 lung and in the experiment with OVCAR-5 ovarian was over 100 µM in each case. Also, the TGI in the experiment on RPMI-8226 leukemia, with SW-620 colon, in the experiment with MCF7 breast and in the experiment on SR leukemia was over 100 µM in each case.

As for `O=C(O)c1ccc(N/C=C2\C(=O)c3ccccc3OC2O)cc1O` (centres undefined), the GI50 in the experiment on LOX IMVI melanoma is 22.5 µg/mL; with SK-OV-3 ovarian it was 28.8 µg/mL; in the experiment on SK-MEL-2 melanoma it was 23.5 µg/mL; with NCI/ADR-RES ovarian, 22.3 µg/mL; with NCI-H522 lung, 28 µg/mL; in the experiment on OVCAR-5 ovarian, 31.2 µg/mL. The GI50 with RPMI-8226 leukemia was 2.45 µg/mL; in the experiment with SW-620 colon, 20.3 µg/mL; with MCF7 breast, 12.6 µg/mL; with SR leukemia, 5.21 µg/mL. For the same molecule, the TGI in the experiment on LOX IMVI melanoma stood at 73.3 µg/mL; in the experiment with SK-OV-3 ovarian, 74.6 µg/mL; with SK-MEL-2 melanoma it was 51.1 µg/mL; with NCI/ADR-RES ovarian it was 78.6 µg/mL; in the experiment with NCI-H522 lung, 62.9 µg/mL; in the experiment on OVCAR-5 ovarian it was 78.5 µg/mL. Moreover, the TGI in the experiment with RPMI-8226 leukemia turned out to be 8.67 µg/mL; with SW-620 colon it was 48.3 µg/mL; in the experiment with MCF7 breast, 81.8 µg/mL; with SR leukemia, 41 µg/mL.

In the case of `NC1=NC(c2ccc(Cl)cc2)C2=C(N1)/C(=C/c1ccc(Cl)cc1)CCC2` (centres undefined), the GI50 is 1850 nM in the experiment with LOX IMVI melanoma; 23.5 µM with SK-OV-3 ovarian; 37.7 µM in the experiment with SK-MEL-2 melanoma; 12.2 µM with NCI/ADR-RES ovarian; 15.7 µM in the experiment on NCI-H522 lung; 25.2 µM in the experiment with OVCAR-5 ovarian. Further, the GI50 in the experiment on RPMI-8226 leukemia is 2.36 µM; in the experiment on SW-620 colon, 3.24 µM; in the experiment with MCF7 breast, 3.62 µM; in the experiment with SR leukemia, 3.69 µM. Moreover, the TGI with LOX IMVI melanoma is 3.64 µM; in the experiment on SK-OV-3 ovarian, over 100 µM; in the experiment with SK-MEL-2 melanoma, over 70.2 µM; in the experiment on NCI/ADR-RES ovarian, over 100 µM; with NCI-H522 lung it was 36.9 µM; with OVCAR-5 ovarian it was 63.3 µM. For the same molecule, the TGI in the experiment with RPMI-8226 leukemia is 6.15 µM; in the experiment on SW-620 colon, 12.4 µM; in the experiment with MCF7 breast, over 100 µM; with SR leukemia, 9.84 µM.

Values taken from PubChem BioAssay (NCI).
